For assay [1], the system named is E. coli. In words: MIC by broth microdilution (CLSI), E. coli. It is filed as cell-based. To be noted: Escherichia coli, read-out: E. coli MIC. The method, then:
(§1) Minimal inhibitory concentrations (MIC) were determined by the broth microdilution method in accordance with the Clinical and Laboratory Standards Institute (CLSI) guidelines. In brief, organism suspensions were adjusted to a 0.5 McFarland standard to yield a final inoculum between 3×10^5 and 7×10^5 colony-forming units (CFU)/mL. Drug dilutions and inocula were made in sterile, cation adjusted Mueller-Hinton Broth (Beckton Dickinson). An inoculum volume of 100 μL was added to wells containing 100 μL of broth with 2-fold serial dilutions of drug. All inoculated microdilution trays were incubated in ambient air at 35° C. for 18-24 h. Following incubation, the lowest concentration of the drug that prevented visible growth (OD600 nm<0.05) was recorded as the MIC. Performance of the assay was monitored by the use of laboratory quality-control strains and levofloxacin, a compound with a defined MIC spectrum, in accordance with CLSI guidelines.
In general terms: Broth dilution looks for growth in wells or tubes with falling amounts of substance.

Assay [2] relates to K. pneumoniae. Briefly: MIC by broth microdilution (CLSI), K. pneumoniae. The assay is classed as cell-based. Conditions: Klebsiella pneumoniae, read-out: K. pneumoniae MIC. The method, then: as §1
[3] abbreviates: broth microdilution, cation adjusted Mueller-Hinton Broth, 35° C., 18-24 h.

The structures appear in SMILES notation. In brackets after ≈: the same amount, converted by molar mass. Read-outs that look alike come from different tables or passages of the source.

A word on the MIC: it is the smallest concentration in the dilution series that meets the test's criterion for growth inhibition. For `CC(C)C#CC#Cc1ccc(CC(C(=O)NCC(F)F)c2nc[nH]c(=O)c2O)cc1F` (stereo not drawn) [Compound 63, N-(2,2-difluoroethyl)-3-(3-fluoro-4-(5-methylhexa-1,3-diyn-1-yl)phenyl)-2-(5-hydroxy-6-oxo-1,6-dihydropyrimidin-4-yl)propanamide], the MIC lay in the range of 1 to 8 µg/mL (≈ 2.32 to 18.5 µM) in assay [1] (setting [3]) and 8 to 32 µg/mL (≈ 18.5 to 74.2 µM) in assay [2] (setting [3]).
For `O=c1[nH]cnc(CCc2ccc(C#Cc3ccc(CN4CCOCC4)nc3)cc2)c1O` [Compound 17, 5-hydroxy-6-(4-((6-(morpholinomethyl)pyridin-3-yl)ethynyl)phenethyl) pyrimidin-4(3H)-one] the same measures were less than 1 µg/mL and 1 to 8 µg/mL (≈ 2.4 to 19.2 µM).
Take `COC(=O)NCC(Cc1ccc(C#Cc2ccc(CN3CCOCC3)cc2)cn1)c1nc[nH]c(=O)c1O` (stereo not drawn) [Compound 29, methyl (2-(5-hydroxy-6-oxo-1,6-dihydropyrimidin-4-yl)-3-(5-((4-(morpholinomethyl)phenyl)ethynyl)pyridin-2-yl)propyl)carbamate]: the MIC in assay [1] (setting [3]) and in assay [2] (setting [3]) was greater than 32 µg/mL throughout.
Take `O=c1[nH]cnc(CCn2ccc(C#Cc3ccc(CN4CCOCC4)cc3)cc2=O)c1O` [Compound 23, 5-hydroxy-6-(2-(4-((4-(morpholinomethyl)phenyl)ethynyl)-2-oxopyridin-1(2H)-yl)ethyl)pyrimidin-4(3H)-one]: the minimal inhibitory concentration (MIC) is less than 1 µg/mL in assay [1] (setting [3]) and 8 to 32 µg/mL (≈ 18.5 to 74 µM) in assay [2] (setting [3]).
For `C=CCNCC(Cc1ccc(C#CC#Cc2ccc(C(=O)O)cc2)cc1)c1nc[nH]c(=O)c1O` (stereo not drawn) [Compound 35, 4-((4-(3-(allylamino)-2-(5 hydroxy-6-oxo-1,6-dihydropyrimidin-4-yl)propyl)phenyl)buta-1,3-diyn-1-yl)benzoic acid] the same measures were 1 to 8 µg/mL (≈ 2.21 to 17.6 µM) and greater than 32 µg/mL.
For the molecule `O=C(NCCO)c1ccc(C#CC#Cc2ccc(CC(CO)c3nc[nH]c(=O)c3O)cc2)cc1` (stereo not drawn) [Compound 32, 4-((4-(3-hydroxy-2-(5-hydroxy-6-oxo-1,6-dihydropyrimidin-4-yl)propyl)phenyl)buta-1,3-diyn-1-yl)-N-(2-hydroxyethyl)benzamide], the MIC in assay [1] (setting [3]) and in assay [2] (setting [3]) was 1 to 8 µg/mL (≈ 2.19 to 17.5 µM) each time.
Consider `O=c1[nH]cnc(C2(Cn3ccc(C#Cc4ccc(CN5CCOCC5)cc4)cc3=O)CC2)c1O` [Compound 43, 5-hydroxy-6-(1-((4-((4-(morpholinomethyl)phenyl)ethynyl)-2-oxopyridin-1(2H)-yl)methyl)cyclopropyl) pyrimidin-4(3H)-one], for which the MIC in assay [1] (setting [3]) and in assay [2] (setting [3]) was greater than 32 µg/mL each time.
Consider `OCC(Cc1nccc(O)c1O)c1ccc(C#Cc2ccc(CN3CCOCC3)cc2)cc1` (stereo not drawn) [Compound 134, 2-(3-hydroxy-2-(4-((4-(morpholinomethyl)phenyl)ethynyl)phenyl)propyl)pyridine-3,4-diol], for which the MIC in assay [1] (setting [3]) and in assay [2] (setting [3]) was greater than 32 µg/mL throughout.
For `C=CCNCC(Cc1ccc(C#CC#Cc2cn[nH]c2)cc1)c1nc[nH]c(=O)c1O` (stereo not drawn) [Compound 67, 6-(1-(4-((1H-pyrazol-4-yl)buta-1,3-diyn-1-yl)phenyl)-3-(allylamino)propan-2-yl)-5-hydroxypyrimidin-4(3H)-one], the MIC is 8 to 32 µg/mL (≈ 20 to 80.1 µM) in assay [1] (setting [3]) and greater than 32 µg/mL in assay [2] (setting [3]).
For `O=c1[nH]cnc(C2(Cc3ccc(C#Cc4ccc(CN5CCOCC5)cc4)cc3)CC2)c1O` [Compound 135, 5-hydroxy-6-(1-(4-((4-(morpholinomethyl)phenyl)ethynyl)benzyl)cyclopropyl) pyrimidin-4(3H)-one] the same measures were 8 to 32 µg/mL (≈ 18.1 to 72.5 µM) and greater than 32 µg/mL.
For `O=c1ccoc(CC(CO)c2ccc(C#Cc3ccc(CN4CCOCC4)cc3)cc2)c1O` (stereo not drawn) [Compound 137, 3-hydroxy-2-(3-hydroxy-2-(4-((4-(morpholinomethyl)phenyl)ethynyl)phenyl)propyl)-4H-pyran-4-one] the same measures were 1 to 8 µg/mL (≈ 2.24 to 18 µM) and 1 to 8 µg/mL (≈ 2.24 to 18 µM).
In the case of `C=CCNCC(Cc1ccc(C#CC#Cc2ccccc2N)cc1)c1nc[nH]c(=O)c1O` (stereo not drawn) [Compound 36, 6-(1-(allylamino)-3-(4-((2-aminophenyl)buta-1,3-diyn-1-yl)phenyl)propan-2-yl)-5-hydroxypyrimidin-4(3H)-one], the minimal inhibitory concentration (MIC) in assay [1] (setting [3]) was 8 to 32 µg/mL (≈ 18.8 to 75.4 µM); in assay [2] (setting [3]), greater than 32 µg/mL.
For `C=C(Cc1ccc(C#CC#Cc2ccc(C(=O)N3CCN(C)CC3)cc2)cc1)c1nc[nH]c(=O)c1O` [Compound 33, 5-hydroxy-6-(3-(4-((4-(4-methylpiperazine-1-carbonyl)phenyl)buta-1,3-diyn-1-yl)phenyl)prop-1-en-2-yl)pyrimidin-4(3H)-one] the same measures were 1 to 8 µg/mL (≈ 2.09 to 16.7 µM) and 1 to 8 µg/mL (≈ 2.09 to 16.7 µM).
For the molecule `Cn1cnc(C(CNC(=O)CF)Cc2ccc(C#Cc3ccc(CN4CCOCC4)cc3)cc2)c(O)c1=O` (stereo not drawn) [Compound 132, 2-fluoro-N-(2-(5-hydroxy-1-methyl-6-oxo-1,6-dihydropyrimidin-4-yl)-3-(4-((4-(morpholinomethyl)phenyl)ethynyl)phenyl)propyl)acetamide], the MIC in assay [1] and in assay [2] was greater than 32 µg/mL in each case.
Take `CO/N=C(\C)C(Cc1ccc(C#Cc2ccc(CN3CCOCC3)cc2)cc1)c1ncnc(O)c1O` (stereo not drawn) [Compound 116, (E)-3-(5,6-dihydroxypyrimidin-4-yl)-4-(4-((4-(morpholinomethyl)phenyl)ethynyl)phenyl)butan-2-one O-methyl oxime]: the MIC is 8 to 32 µg/mL (≈ 16.4 to 65.8 µM) in assay [1] (setting [3]) and greater than 32 µg/mL in assay [2] (setting [3]).
For `O=C(Cc1nc[nH]c(=O)c1O)N1CCC(C#Cc2ccc(CN3CCOCC3)cc2)CC1` [Compound 77, 5-hydroxy-6-(2-(4-((4-(morpholinomethyl)phenyl)ethynyl)piperidin-1-yl)-2-oxoethyl)pyrimidin-4(3H)-one], the MIC is 8 to 32 µg/mL (≈ 18.3 to 73.3 µM) in assay [1] (setting [3]) and greater than 32 µg/mL in assay [2] (setting [3]).
For `O=c1[nH]cnc(CCc2ccc(C#Cc3ccc(CN4CCOCC4)cc3)cn2)c1O` [Compound 19, 5-hydroxy-6-(2-(5-((4-(morpholinomethyl)phenyl)ethynyl)pyridin-2-yl)ethyl)pyrimidin-4(3H)-one], the MIC in assay [1] (setting [3]) was less than 1 µg/mL; in assay [2] (setting [3]), 1 to 8 µg/mL (≈ 2.4 to 19.2 µM).
For `O=c1cccc(CC(CO)c2ccc(C#Cc3ccc(CN4CCOCC4)cc3)cc2)n1O` (stereo not drawn) [Compound 138, 1-hydroxy-6-(3-hydroxy-2-(4-((4-(morpholinomethyl)phenyl)ethynyl)phenyl)propyl)pyridin-2(1H)-one] the same measures were 8 to 32 µg/mL (≈ 18 to 72 µM) and 8 to 32 µg/mL (≈ 18 to 72 µM).
The matching figures for `O=c1[nH]cnc(CCN2CCC(C#Cc3ccc(CN4CCOCC4)cc3)CC2)c1O` [Compound 78, 5-hydroxy-6-(2-(4-((4-(morpholinomethyl)phenyl)ethynyl)piperidin-1-yl)ethyl)pyrimidin-4(3H)-one]: 8 to 32 µg/mL (≈ 18.9 to 75.7 µM) and greater than 32 µg/mL.
The matching figures for `O=c1ccoc(CCc2ccc(C#Cc3ccc(CN4CCOCC4)cc3)cc2)c1O` [Compound 117, 3-hydroxy-2-(4-((4-(morpholinomethyl)phenyl)ethynyl)phenethyl)-4H-pyran-4-one]: 8 to 32 µg/mL (≈ 19.3 to 77 µM) and greater than 32 µg/mL.
In the case of `Cc1ncc(C#Cc2ccc(CC(C(=O)NCC(F)F)c3nc[nH]c(=O)c3O)cc2)cn1` (stereo not drawn) [Compound 25, N-(2,2-difluoroethyl)-2-(5-hydroxy-6-oxo-1,6-dihydropyrimidin-4-yl)-3-(4-((2-methylpyrimidin-5-yl)ethynyl)phenyl)propanamide], the MIC in assay [1] (setting [3]) and in assay [2] (setting [3]) was greater than 32 µg/mL throughout.

The record behind these values is patent US20220081421A1, “ANTIBACTERIAL COMPOUNDS” (Forge Therapeutics, Inc., priority 2018, published 2022).
